{"source": "paper PMC8040415", "about": "“Para-chloro-2-[^18F]fluoroethyl-etomidate: A promising new PET radiotracer for adrenocortical imaging” (International Journal of Medical Sciences, 2021)", "key": {"NHP adrenal gland tissue": {"molecular_target": "NHP adrenal gland tissue", "assay": "Competition binding assay against 10 nM [^18F]CETO", "design": "species or system cynomolgus monkey (non-human primate", "settings": "residual binding of 10 nM [^18F]CETO, NHP adrenal gland tissue 200 µg/mL, 60 min, room temperature", "procedure": "(§1) Normal NHP adrenal tissue was weighed and homogenized in 20 volumes of ice-cold 0.32 M sucrose and stored in aliquots at -80 °C until use. For the saturation binding study, the homogenate was further diluted to 20 µg/mL in the assay. Triplicates of each ligand concentration in the range of 0.03-30 nmol/L [^18F]CETO, with and without a competing ligand (1 µmol/L metomidate), were incubated at room temperature for 60 min. For the competition binding assay, 200 µg/mL of NHP adrenal gland tissue was used. Triplicate tubes, containing 10 nM [^18F]CETO were incubated for 60 min at room temperature with three competing ligands, MTO, FETO and CETO, at concentrations between 0 and 30 nmol/L, respectively.\n(§2) The incubations were terminated by filtration under vacuum through Whatman GF/C glass fibre filters, using a cell harvester (Brandel, Gaithersburg, MD). The filters were washed four times with 3 mL PBS buffer and transferred to scintillation tubes where the trapped radioactivity was measured in an automated gamma counter (Wizard 2480, PerkinElmer Downers Grove, IL, USA).\n(§3) The saturation study was repeated twice with normal NHP adrenal gland tissue and the results were used to calculate the equilibrium dissociation constant, Kd, and the total target density for the binding of [^18F]CETO, Bmax. Values for IC50, Bmax and Kd were estimated by GraphPad Prism 8.2, using non-linear regression of the binding curves."}, "[1]": {"assay": "PET/CT in non-human primate with kinetic modelling", "assay_type": "in vivo, Macaca fascicularis", "settings": "for time of peak uptake in the adrenal glands: SUVmean time-activity curves", "procedure": "One female NHP, Macaca fascicularis, was obtained from the Astrid Fagræus Laboratory, Karolinska Institute, Comparative Medicine. The NHP was used to compare the [^18F]CETO and [^11C]MTO biodistribution and their uptake over time in adrenal and liver.\nKetamine (~10 mg/kg) was used as a sedative. Whilst being transported to the PET centre at Uppsala University Hospital, the NPH was weighed and maintained on iterated ketamine injections (15 mg/kg/h). Saturation levels were continuously measured through pulse oximetry, and oxygen administered as needed.\nAt the PET centre, the NPH was intubated under propofol-induced anaesthesia. General anaesthesia was maintained by sevoflurane inhalation (1.5 - 5.0%) and artificial ventilation. Two venous catheters were placed - one for blood sampling and one for tracer administration. Body temperature, heart rate, ECG, pCO2, pO2, SaO2 and blood pressure levels were monitored throughout the PET study. A General Electric Discovery MI PET/CT scanner (GE Healthcare, Milwaukee, USA) was used.\nPET/CT positioning was determined by using a scout CT scan, and 6.5 MBq/kg of [^11C]MTO was administered I.V. through the catheter. A baseline dynamic 90 min PET scan over the abdomen was started. After a sufficient waiting period, to allow for the radioactive decay of carbon-11, 4.2 MBq/kg of [^18F]CETO was injected I.V. A 90 min baseline dynamic PET scan was started and was followed by a 15 min whole-body PET examination. Thereafter, a blockage study was performed by administering 0.5 mg/kg etomidate I.V. for 20 min. At the end of etomidate administration, corresponding to approximately 150 min after the baseline [^18F]CETO injection, 19.3 MB/kg of [^18F]CETO was administered I.V., followed by a 90 min dynamic PET scan. The amount of radioactivity used in the blocking study was nearly fivefold that used during the baseline PET examination, in order to render any remaining activity from the baseline scan negligible. During both [^18F]CETO PET scans, discrete venous blood samples (~2 mL) were collected in heparinized tubes at 5, 10, 20, 40 and 80 min p.i. (3 mL at the last time point) of [^18F]CETO to measure radioactivity in whole blood and in plasma and for metabolite analysis. PET images were reconstructed using an ordered-subsets maximisation (OSEM) algorithm including time-of-flight information and resolution recovery. Dynamic images were reconstructed into time frames with increasing durations.\nIn the PET images, volumes of interest (VOIs) were drawn over representative subsets of aorta, adrenals, kidneys, liver, lungs, pancreas and spleen and transferred to all dynamic time frames to obtain time-activity curves (TACs), showing SUV as a function of time, after normalization to injected activity per body weight. Plasma TACs were determined by multiplying the aorta TAC with the mean plasma-to-whole blood ratio of the five analysed blood samples. Then, a metabolite-corrected input curve, representing intact tracer in plasma, was calculated by multiplying the plasma TAC with a sigmoid fit to the measured parent fraction data.\nAdrenal time-activity curves were fitted using single-tissue as well as irreversible and reversible two-tissue compartment models. The optimal model to describe the data was determined using the Akaike information criterion. In addition, data were analysed using the Patlak and Logan graphical analysis methods, assuming irreversible and reversible kinetics, respectively. Additionally, whole-body net uptake rate parametric images were calculated using the Patlak method."}, "[2]": {"assay": "PET-MRI in rats with and without metomidate blocking", "assay_type": "in vivo, Sprague Dawley rats", "from_the_text": "Sevoflurane inhalation was used for the induction and maintenance of anaesthesia, and an intravenous catheter was placed in the lateral tail vein. After the investigations, the mice/rats were euthanized and their organs harvested and weighed, followed by measurement of radioactivity (as previously described). PET and MRI images were acquired on a Nanoscan PET-3TMRI scanner (Mediso Mediso, Medical Imaging Systems, Budapest, Hungary).\nTwo male Sprague Dawley rats were positioned on the heated bed of the scanner and a dynamic PET acquisition of the abdomen was initiated immediately before injection of 4-5 MBq of [^18F]CETO. Metomidate (1 µmol/kg) was co-injected in one of the rats as a blocker. The dynamic PET scan was continued for 60 min and was followed by a whole-body static scan, 3 beds, 5 min per bed position ~90 min post injection, and by MRI of the abdomen.\nPET acquisition was initiated and 4.0-4.8 MBq of […] was intravenously administered. One of the rats was given metomidate (1 µmol/kg) I.V., for a blockage study. An initial dynamic PET scan of the abdomen was performed for 60 min, followed by a baseline whole body PET scan for 15 min."}, "[3]": {"assay": "Ex-vivo organ distribution in rats", "design": "species or system Sprague Dawley rats", "procedure": "A biodistribution study for [^18F]CETO was performed in thirty Sprague Dawley rats. A dose of 5.4±0.9 MBq [^18F]CETO was injected as a bolus in the lateral tail vein, to un-sedated rats. Three rats of each gender were then euthanized by high concentrations of CO2, at five predetermined time points; 10, 30, 60, 120 and 240 min post injection (p.i.), respectively, and their organs were harvested and weighed. Radioactivity content in the organs was measured in a well-type NaI(Tl) scintillation counter, applying correction for dead-time and for decay. The organ radioactivity readings were decay-corrected to the time of injection, and results were expressed as standardized uptake values (SUV)."}, "[4]": {"assay": "Observation of adverse effects after tracer injection, NHP", "assay_type": "in vivo, Macaca fascicularis", "settings": "recovery post-anaesthesia", "from_the_text": "After the imaging sessions, the NHP was wakened and de-intubated and, once stable, transported back to its living facility."}, "[5]": {"system": "normal NHP adrenal tissue", "assay": "In vitro association/dissociation kinetics (LigandTracer)", "design": "species or system cynomolgus monkey (non-human primate", "settings": "1:1 kinetic binding model, NHP adrenal homogenate", "procedure": "To determine the in vitro kinetics for association and dissociation of [^18F]CETO to normal NHP adrenal tissue, 20 µL of homogenate, corresponding to 40 µg of adrenal, was pipetted to a Poly-D-lysine coated cell dish (CELLCOAT™, Greiner Bio-One GmbH, Austria) and allowed to dry for 15 min. Subsequently, the dishes were placed in the inclined rotating holder of a LigandTracer™ yellow instrument (Ridgeview Instruments AB, Uppsala, Sweden) and [^18F]CETO was added with concentrations ranging from 1 to 5 nM to measure the association rate. A higher concentration was added when the previous concentration had reached equilibrium. To measure the dissociation rate, the radioactive solution was replaced with buffer after the highest concentration reached equilibrium. Data were analyzed with TraceDrawer software (Ridgeview Instruments AB, Uppsala, Sweden) and the association rate constant (kon), dissociation rate constant (koff) and equilibrium dissociation constant (KD) were computed using a 1:1 kinetic binding model."}, "[6]": {"assay": "Observation of adverse effects after tracer injection, rats", "settings": "rats following [^18F]CETO injection"}, "[7]": {"assay": "Radio metabolite analysis of [^18F]CETO in NHP plasma", "assay_type": "in vivo, Macaca fascicularis", "settings": "for intact [^18F]CETO: NHP venous plasma"}, "[8]": {"system": "CYP11B1 and CYP11B2 in NHP adrenal gland homogenate", "assay": "Saturation binding of [^18F]CETO in adrenal gland homogenate", "design": "species or system cynomolgus monkey (non-human primate", "settings": "saturation study", "procedure": "as §1, §2, §3"}, "[9]": {"system": "human adrenal tumours and normal adrenal gland", "assay": "Frozen section autoradiography", "assay_type": "binding", "settings": "0.03 nmol/L [^18F]CETO, 60 min", "procedure": "Tissues from normal human adrenal glands, liver, kidney, spleen and small intestine were used along with samples of different types of adrenal tumours, aldosterone-producing adenomas (APA), cortisol-producing adenomas (CPA), ACC, and pheochromocytoma (PCC). Normal adrenal gland tissues and spleen tissues from non-human primates (NHPs) were also utilized.\nSpecimens for autoradiography were prepared from snap-frozen tissue, stored at -70 °C, and divided by a cryotome into 20 μm thick slices. The slices were placed on Superfrost^TM glass slides and stored at -20 °C until the autoradiographic examination. Slides were pre-incubated at room temperature for 20 min in a PBS buffer. Duplicate slides were incubated in 0.03 nmol/L [^18F]CETO for 60 min, in the presence or absence of an excess of metomidate (0.45 µmol/L) to block the specific binding of [^18F]CETO. After incubation, slides were washed for 3 × 3 min in cold PBS buffer, followed by rapid immersion in water. Slides were then dried for 10 min at 37 °C and exposed to Super Resolution Storage Phosphor Screens (PerkinElmer, Downers Grove, IL, USA) for >240 min and scanned in a Cyclone Plus Phosphor Imager (PerkinElmer, Model C431200, Downers Grove, IL, USA)."}}, "note": "Where “and” joins values, the source holds several entries; their conditions need not be identical. Equal values may be shown once. Entries after “also recorded” stand apart in the source; their conditions may differ."}
{"smiles": "C[C@H](c1ccccc1)n1cncc1C(=O)OCCF", "note": "[FETO]", "values": [{"measurement": "IC50", "setting": "NHP adrenal gland tissue", "value": 3, "unit": "nM"}]}
{"smiles": "COC(=O)c1cncn1C(C)c1ccccc1", "note": "(centres unmarked) [MTO, metomidate]", "values": [{"measurement": "IC50", "setting": "NHP adrenal gland tissue", "value": 2, "unit": "nM"}]}
{"smiles": "C[C@H](c1ccccc1)n1cncc1C(=O)O[11CH3]", "note": "[[^11C]MTO, [^11C]Metomidate, reference compound]", "values": [{"measurement": "highest adrenal-to-liver ratio", "setting": "[1]; NHP, 40 minutes p.i.", "value": 1.5}, {"measurement": "time of peak uptake in the adrenal glands", "setting": "[1]; NHP", "value": "approximately 40 min p.i."}]}
{"smiles": "C[C@H](c1ccccc1)n1cncc1C(=O)OCC[18F]", "note": "[[^18F]FETO, 2-[^18F]fluoroethyl-etomidate]", "values": [{"measurement": "blocking of adrenal uptake with metomidate", "setting": "[2]; metomidate 1 µmol/kg", "value": "unable to block; also recorded: not possible to block"}]}
{"smiles": "C[C@H](c1ccc(Cl)cc1)n1cncc1C(=O)OCCF", "note": "[CETO]", "values": [{"measurement": "IC50", "setting": "NHP adrenal gland tissue", "value": 5, "unit": "nM"}]}
{"smiles": "C[C@H](c1ccc(Cl)cc1)n1cncc1C(=O)OCC[18F]", "note": "[[^18F]CETO, para-chloro-2-[^18F]fluoroethyl-etomidate]", "values": [{"measurement": "time of peak uptake in the adrenal glands", "setting": "[3]; ex-vivo biodistribution", "value": 2, "unit": "hr p.i."}, {"measurement": "uptake in all other organs and tissues (SUV)", "setting": "[3]; other than adrenal glands and early lungs and pancreas, bone and urinary bladder are exceptions", "value": "~1", "unit": "SUV"}, {"measurement": "adverse effects", "setting": "[4]", "value": "no adverse effects"}, {"measurement": "koff", "setting": "[5]", "value": 0.00035, "unit": "s⁻¹"}, {"measurement": "Kd", "setting": "[5]; read-out: Kd value derived from the rate constants", "value": 0.59, "unit": "nM"}, {"measurement": "adverse effects", "setting": "[6]", "value": "No adverse effects"}, {"measurement": "intact [^18F]CETO", "setting": "[7]; 5 min p.i.", "value": 56, "unit": "%"}, {"measurement": "intact [^18F]CETO", "setting": "[7]; 80 min p.i.", "value": 11, "unit": "%"}, {"measurement": "[^18F]CETO share of radioactivity in plasma", "setting": "[7]; NHP, final observation time point 90 min p.i.", "value": "approximately 10%"}, {"measurement": "half-life", "setting": "[7]; female, cynomolgus monkey, plasma, intravenous, NHP, bi-phasic metabolism, read-out: plasma half-life, fast first phase", "value": "~10", "unit": "min"}, {"measurement": "Bmax", "setting": "[8]", "value": "0.0082 to 0.0097", "unit": "nmol/mg"}, {"measurement": "Kd", "setting": "[8]; room temperature, 60 min, read-out: equilibrium dissociation constant, Kd", "value": "0.66 nM and 0.66 to 0.67 nM and 0.67 nM"}, {"measurement": "Bmax", "setting": "[8]; separate experiments A and B", "value": "0.0097 nmol/mg and 0.0082 nmol/mg"}, {"measurement": "uptake in APAs compared to that of the normal adrenal gland", "setting": "[9]", "value": "approximately threefold"}, {"measurement": "route of elimination", "setting": "[2]", "value": "mainly renal"}, {"measurement": "time of peak adrenal uptake", "setting": "[2]", "value": 120, "unit": "min p.i."}, {"measurement": "highest adrenal-to-liver ratio", "setting": "[1]; NHP, 85 min p.i.", "value": "> 5"}, {"measurement": "time of peak uptake in the adrenal glands", "setting": "[1]; NHP", "value": "> 85", "unit": "min p.i."}, {"measurement": "rate constant k3 in the adrenal glands after blocking", "setting": "[1]; NHP, after etomidate 0.5 mg/kg, irreversible two-tissue compartment model", "value": "reduced to zero"}, {"measurement": "route of elimination", "setting": "[1]; NHPs", "value": "mainly renal"}]}
